Columns and labels:
late watergrass = test: Test Example 1: herbicidal activity, application before weed generation under submerged conditions (Table 16, symbol A); type: in vivo, late watergrass (Echinochloa oryzicola)
Procedure, shortened: (§1)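 Submerged Wagner pots (alluvial soil, 4 cm water) sown with weed seeds and planted with 2.5-leaf rice seedlings; emulsifiable concentrate diluted in water applied to water surface on sowing day. Held in greenhouse at 25-30 °C; injury scored 0-5 by herbicidal rate after three weeks.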

Japanese bulrush = test: Test Example 1: herbicidal activity, application before weed generation under submerged conditions (Table 16, symbol B); type: in vivo, Japanese bulrush (Schoenoplectus juncoides)
Procedure, shortened: as §1

oval-leafed pondweed = test: Test Example 1: herbicidal activity, application before weed generation under submerged conditions (Table 16, symbol C); type: in vivo, oval-leafed pondweed (Monochoria vaginalis)
Procedure, shortened: as §1

barnyard grass [1] = test: Test Example 3: herbicidal effect by foliage application, Wagner pot (Table 18, symbol H); type: in vivo, barnyard grass (Echinochloa crus-galli); conditions: amount of applied herbicide 320 g/ha
Procedure, shortened: (§2)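 Plants were sown in alluvial soil held under 0.1–0.5 cm standing water and grown 14 days in a greenhouse at 25–30 °C. An emulsifiable formulation, water-diluted to the set dose, was then sprayed onto the foliage, and effects were scored three weeks later using previously defined criteria.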

Chinese sprangletop = test: Test Example 3: herbicidal effect by foliage application, Wagner pot (Table 18, symbol D); type: in vivo, chinese sprangletop (Leptochloa chinensis); conditions: amount of applied herbicide 320 g/ha
Procedure, shortened: as §2

rice flat sedge = test: Test Example 3: herbicidal effect by foliage application, Wagner pot (Table 18, symbol E); type: in vivo, rice flat sedge (Cyperus iria); conditions: amount of applied herbicide 320 g/ha
Procedure, shortened: as §2

southern crabgrass [2] = test: Test Example 4: herbicidal effect by soil treatment (Table 19, symbol F); type: in vivo, southern crabgrass (Digitaria ciliaris); conditions: amount of applied herbicide 320 g/ha
Procedure, shortened: (§3)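 In this soil treatment, the formulated compound reached the seeds only through the soil: seeds were buried about 1.5 cm deep in sterilized diluvial soil, then the diluted emulsion was sprayed over the surface. After three weeks at 25° C. to 30° C. in a greenhouse, effects were graded on criteria from an earlier test.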

green foxtail [3] = test: Test Example 4: herbicidal effect by soil treatment (Table 19, symbol G); type: in vivo, green foxtail (Setaria viridis); conditions: amount of applied herbicide 320 g/ha
Procedure, shortened: as §3

barnyard grass [4] = test: Test Example 4: herbicidal effect by soil treatment (Table 19, symbol H); type: in vivo, barnyard grass (Echinochloa crus-galli); conditions: amount of applied herbicide 320 g/ha
Procedure, shortened: as §3

wild oat [5] = test: Test Example 4: herbicidal effect by soil treatment (Table 19, symbol I); type: in vivo, wild oat (Avena fatua); conditions: amount of applied herbicide 320 g/ha
Procedure, shortened: as §3

blackgrass [6] = test: Test Example 4: herbicidal effect by soil treatment (Table 19, symbol J); type: in vivo, blackgrass (Alopecurus myosuroides); conditions: amount of applied herbicide 320 g/ha
Procedure, shortened: as §3

Italian ryegrass [7] = test: Test Example 4: herbicidal effect by soil treatment (Table 19, symbol K); type: in vivo, Italian ryegrass (Lolium multiflorum); conditions: amount of applied herbicide 320 g/ha
Procedure, shortened: as §3

windgrass [8] = test: Test Example 4: herbicidal effect by soil treatment (Table 19, symbol L); type: in vivo, windgrass (Apera spica-venti); conditions: amount of applied herbicide 320 g/ha
Procedure, shortened: as §3

velvetleaf [9] = test: Test Example 4: herbicidal effect by soil treatment (Table 19, symbol M); type: in vivo, velvetleaf (Abutilon theophrasti); conditions: amount of applied herbicide 320 g/ha
Procedure, shortened: as §3

redroot pigweed [10] = test: Test Example 4: herbicidal effect by soil treatment (Table 19, symbol N); type: in vivo, redroot pigweed (Amaranthus retroflexus); conditions: amount of applied herbicide 320 g/ha
Procedure, shortened: as §3

lambsquarters [11] = test: Test Example 4: herbicidal effect by soil treatment (Table 19, symbol O); type: in vivo, lambsquarters (Chenopodium album); conditions: amount of applied herbicide 320 g/ha
Procedure, shortened: as §3

chickweed [12] = test: Test Example 4: herbicidal effect by soil treatment (Table 19, symbol P); type: in vivo, common chickweed (Stellaria media); conditions: amount of applied herbicide 320 g/ha
Procedure, shortened: as §3

persian speedwell [13] = test: Test Example 4: herbicidal effect by soil treatment (Table 19, symbol R); type: in vivo, Persian speedwell (Veronica persica); conditions: amount of applied herbicide 320 g/ha
Procedure, shortened: as §3

southern crabgrass [14] = test: Test Example 5: herbicidal effect by foliage application, plastic box (Table 20, symbol F); type: in vivo, southern crabgrass (Digitaria ciliaris); conditions: foliage application, AAH 320 g/ha, evaluated three weeks after application
Procedure, shortened: (§4)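 Plants were sown into sterilized diluvial soil under about 1.5 cm cover and kept in a greenhouse at 25° C. to 30° C. Fourteen days on, foliage received an even spray of the diluted emulsion. Herbicidal or crop effect was judged three weeks afterwards.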

green foxtail [15] = test: Test Example 5: herbicidal effect by foliage application, plastic box (Table 20, symbol G); type: in vivo, green foxtail (Setaria viridis); conditions: foliage application, AAH 320 g/ha, evaluated three weeks after application
Procedure, shortened: as §4

barnyard grass [16] = test: Test Example 5: herbicidal effect by foliage application, plastic box (Table 20, symbol H); type: in vivo, barnyard grass (Echinochloa crus-galli); conditions: foliage application, AAH 320 g/ha, evaluated three weeks after application
Procedure, shortened: as §4

wild oat [17] = test: Test Example 5: herbicidal effect by foliage application, plastic box (Table 20, symbol I); type: in vivo, wild oat (Avena fatua); conditions: foliage application, AAH 320 g/ha, evaluated three weeks after application
Procedure, shortened: as §4

blackgrass [18] = test: Test Example 5: herbicidal effect by foliage application, plastic box (Table 20, symbol J); type: in vivo, blackgrass (Alopecurus myosuroides); conditions: foliage application, AAH 320 g/ha, evaluated three weeks after application
Procedure, shortened: as §4

Italian ryegrass [19] = test: Test Example 5: herbicidal effect by foliage application, plastic box (Table 20, symbol K); type: in vivo, Italian ryegrass (Lolium multiflorum); conditions: foliage application, AAH 320 g/ha, evaluated three weeks after application
Procedure, shortened: as §4

windgrass [20] = test: Test Example 5: herbicidal effect by foliage application, plastic box (Table 20, symbol L); type: in vivo, windgrass (Apera spica-venti); conditions: foliage application, AAH 320 g/ha, evaluated three weeks after application
Procedure, shortened: as §4

velvetleaf [21] = test: Test Example 5: herbicidal effect by foliage application, plastic box (Table 20, symbol M); type: in vivo, velvetleaf (Abutilon theophrasti); conditions: foliage application, AAH 320 g/ha, evaluated three weeks after application
Procedure, shortened: as §4

redroot pigweed [22] = test: Test Example 5: herbicidal effect by foliage application, plastic box (Table 20, symbol N); type: in vivo, redroot pigweed (Amaranthus retroflexus); conditions: foliage application, AAH 320 g/ha, evaluated three weeks after application
Procedure, shortened: as §4

lambsquarters [23] = test: Test Example 5: herbicidal effect by foliage application, plastic box (Table 20, symbol O); type: in vivo, lambsquarters (Chenopodium album); conditions: foliage application, AAH 320 g/ha, evaluated three weeks after application
Procedure, shortened: as §4

chickweed [24] = test: Test Example 5: herbicidal effect by foliage application, plastic box (Table 20, symbol P); type: in vivo, common chickweed (Stellaria media); conditions: foliage application, AAH 320 g/ha, evaluated three weeks after application
Procedure, shortened: as §4

persian speedwell [25] = test: Test Example 5: herbicidal effect by foliage application, plastic box (Table 20, symbol R); type: in vivo, Persian speedwell (Veronica persica); conditions: foliage application, AAH 320 g/ha, evaluated three weeks after application
Procedure, shortened: as §4

[26] = amount of applied herbicide 320 g/ha

Cc1nn(C)c(=O)c(-c2c(-c3ccc(F)c(F)c3)sc3ccc(F)cc23)c1O [2-344]
Herbicidal effect on A: late watergrass (grade 0-5) (late watergrass; 320 g/ha applied herbicide): 0 (Herbicidal rate of 5% or less (almost no effect))
Herbicidal effect on B: Japanese bulrush (grade 0-5) (Japanese bulrush; 320 g/ha applied herbicide): 2 (Herbicidal rate of 20% or more and less than 40%)
Herbicidal effect on C: oval-leafed pondweed (grade 0-5) (oval-leafed pondweed; 320 g/ha applied herbicide): 0 (Herbicidal rate of 5% or less (almost no effect))
herbicidal effect on H: barnyard grass (barnyard grass [1]): 5 (Herbicidal rate of 90% or more (almost completely withered))
herbicidal effect on D: Chinese sprangletop (Chinese sprangletop): 4 (Herbicidal rate of 70% or more and less than 90%)
herbicidal effect on E: rice flat sedge (rice flat sedge): 5 (Herbicidal rate of 90% or more (almost completely withered))
herbicidal effect on F: southern crabgrass (southern crabgrass [2]): 5 (Herbicidal rate of 90% or more (almost completely withered))
herbicidal effect on G: green foxtail (green foxtail [3]): 5 (Herbicidal rate of 90% or more (almost completely withered))
herbicidal effect on H: barnyard grass (barnyard grass [4]): 4 (Herbicidal rate of 70% or more and less than 90%)
herbicidal effect on I: wild oat (wild oat [5]): 0 (Herbicidal rate of 5% or less (almost no effect))
herbicidal effect on J: blackgrass (blackgrass [6]): 0 (Herbicidal rate of 5% or less (almost no effect))
herbicidal effect on K: Italian ryegrass (Italian ryegrass [7]): 5 (Herbicidal rate of 90% or more (almost completely withered))
herbicidal effect on L: windgrass (windgrass [8]): 0 (Herbicidal rate of 5% or less (almost no effect))
herbicidal effect on M: velvetleaf (velvetleaf [9]): 3 (Herbicidal rate of 40% or more and less than 70%)
herbicidal effect on N: redroot pigweed (redroot pigweed [10]): 5 (Herbicidal rate of 90% or more (almost completely withered))
herbicidal effect on O: lambsquarters (lambsquarters [11]): 5 (Herbicidal rate of 90% or more (almost completely withered))
herbicidal effect on P: chickweed (chickweed [12]): 4 (Herbicidal rate of 70% or more and less than 90%)
herbicidal effect on R: persian speedwell (persian speedwell [13]): 5 (Herbicidal rate of 90% or more (almost completely withered))
F: southern crabgrass, herbicidal effect (criteria 0-5) (southern crabgrass [14]): 5 (Herbicidal rate of 90% or more (almost completely withered))
G: green foxtail, herbicidal effect (criteria 0-5) (green foxtail [15]): 5 (Herbicidal rate of 90% or more (almost completely withered))
H: barnyard grass, herbicidal effect (criteria 0-5) (barnyard grass [16]): 5 (Herbicidal rate of 90% or more (almost completely withered))
I: wild oat, herbicidal effect (criteria 0-5) (wild oat [17]): 3 (Herbicidal rate of 40% or more and less than 70%)
J: blackgrass, herbicidal effect (criteria 0-5) (blackgrass [18]): 2 (Herbicidal rate of 20% or more and less than 40%)
K: Italian ryegrass, herbicidal effect (criteria 0-5) (Italian ryegrass [19]): 5 (Herbicidal rate of 90% or more (almost completely withered))
L: windgrass, herbicidal effect (criteria 0-5) (windgrass [20]): 5 (Herbicidal rate of 90% or more (almost completely withered))
M: velvetleaf, herbicidal effect (criteria 0-5) (velvetleaf [21]): 5 (Herbicidal rate of 90% or more (almost completely withered))
N: redroot pigweed, herbicidal effect (criteria 0-5) (redroot pigweed [22]): 5 (Herbicidal rate of 90% or more (almost completely withered))
O: lambsquarters, herbicidal effect (criteria 0-5) (lambsquarters [23]): 4 (Herbicidal rate of 70% or more and less than 90%)
P: chickweed, herbicidal effect (criteria 0-5) (chickweed [24]): 5 (Herbicidal rate of 90% or more (almost completely withered))
R: persian speedwell, herbicidal effect (criteria 0-5) (persian speedwell [25]): 5 (Herbicidal rate of 90% or more (almost completely withered))

CCCC(=O)Oc1c(C)nn(C)c(=O)c1-c1c(-c2cnccc2C(F)(F)F)sc2ccc(F)cc12 [2-388]
Herbicidal effect, A: late watergrass (late watergrass; [26]): 5 (Herbicidal rate of 90% or more (almost completely withered))
Herbicidal effect, B: Japanese bulrush (Japanese bulrush; [26]): 0 (Herbicidal rate of 5% or less (almost no effect))
Herbicidal effect, C: oval-leafed pondweed (oval-leafed pondweed; [26]): 0 (Herbicidal rate of 5% or less (almost no effect))
herbicidal effect on H: barnyard grass (barnyard grass [1]): 5 (Herbicidal rate of 90% or more (almost completely withered))
herbicidal effect on D: Chinese sprangletop (Chinese sprangletop): 3 (Herbicidal rate of 40% or more and less than 70%)
herbicidal effect on E: rice flat sedge (rice flat sedge): 3 (Herbicidal rate of 40% or more and less than 70%)
herbicidal effect, F: southern crabgrass (southern crabgrass [2]): 0 (Herbicidal rate of 5% or less (almost no effect))
herbicidal effect, G: green foxtail (green foxtail [3]): 0 (Herbicidal rate of 5% or less (almost no effect))
herbicidal effect, H: barnyard grass (barnyard grass [4]): 3 (Herbicidal rate of 40% or more and less than 70%)
herbicidal effect, I: wild oat (wild oat [5]): 0 (Herbicidal rate of 5% or less (almost no effect))
herbicidal effect, J: blackgrass (blackgrass [6]): 0 (Herbicidal rate of 5% or less (almost no effect))
herbicidal effect, K: Italian ryegrass (Italian ryegrass [7]): 0 (Herbicidal rate of 5% or less (almost no effect))
herbicidal effect, L: windgrass (windgrass [8]): 0 (Herbicidal rate of 5% or less (almost no effect))
herbicidal effect, M: velvetleaf (velvetleaf [9]): 0 (Herbicidal rate of 5% or less (almost no effect))
herbicidal effect, N: redroot pigweed (redroot pigweed [10]): 1 (Herbicidal rate of 5% or more and less than 20%)
herbicidal effect, O: lambsquarters (lambsquarters [11]): 2 (Herbicidal rate of 20% or more and less than 40%)
herbicidal effect, P: chickweed (chickweed [12]): 5 (Herbicidal rate of 90% or more (almost completely withered))
herbicidal effect, R: persian speedwell (persian speedwell [13]): 5 (Herbicidal rate of 90% or more (almost completely withered))
F: southern crabgrass, herbicidal effect (criteria 0-5) (southern crabgrass [14]): 1 (Herbicidal rate of 5% or more and less than 20%)
G: green foxtail, herbicidal effect (criteria 0-5) (green foxtail [15]): 3 (Herbicidal rate of 40% or more and less than 70%)
H: barnyard grass, herbicidal effect (criteria 0-5) (barnyard grass [16]): 4 (Herbicidal rate of 70% or more and less than 90%)
I: wild oat, herbicidal effect (criteria 0-5) (wild oat [17]): 3 (Herbicidal rate of 40% or more and less than 70%)
J: blackgrass, herbicidal effect (criteria 0-5) (blackgrass [18]): 1 (Herbicidal rate of 5% or more and less than 20%)
K: Italian ryegrass, herbicidal effect (criteria 0-5) (Italian ryegrass [19]): 3 (Herbicidal rate of 40% or more and less than 70%)
L: windgrass, herbicidal effect (criteria 0-5) (windgrass [20]): 4 (Herbicidal rate of 70% or more and less than 90%)
M: velvetleaf, herbicidal effect (criteria 0-5) (velvetleaf [21]): 5 (Herbicidal rate of 90% or more (almost completely withered))
N: redroot pigweed, herbicidal effect (criteria 0-5) (redroot pigweed [22]): 4 (Herbicidal rate of 70% or more and less than 90%)
O: lambsquarters, herbicidal effect (criteria 0-5) (lambsquarters [23]): 4 (Herbicidal rate of 70% or more and less than 90%)
P: chickweed, herbicidal effect (criteria 0-5) (chickweed [24]): 5 (Herbicidal rate of 90% or more (almost completely withered))
R: persian speedwell, herbicidal effect (criteria 0-5) (persian speedwell [25]): 5 (Herbicidal rate of 90% or more (almost completely withered))

— patent US20230085307A1, “PYRIDAZINONE COMPOUND AND HERBICIDE” (NISSAN CHEMICAL CORPORATION, priority 2019, published 2023)
